The test system of this series is GENE-TOX genotoxicity assays, various organisms and cells. The series is described as follows: GENE-TOX mutagenicity studies. The following applies: for call: Assay Type: In vivo carcinogenicity studies.
[1] abbreviates: Species/Cell Type: Human lymphocytes, Assay Type: Sister-chromatid exchange (SCE) in vitro, Assay Code: SCLT, Evaluation Type: Evaluation B (Post-1980).
[2] abbreviates: Species/Cell Type: Human, Assay Type: Sister-chromatid exchange (SCE) in vitro, Assay Code: SC1T, Evaluation Type: Evaluation B (Post-1980).
Setting [3] is: Species/Cell Type: Nonhuman, Assay Type: Sister-chromatid exchange (SCE) in vitro, Assay Code: SC2T, Evaluation Type: Evaluation B (Post-1980).
The mark [4] stands for this setting: Species/Cell Type: Salmonella typhimurium (one or more of the five standard strains: TA98, TA100, TA1535, TA1537, and TA1538), Assay Type: Histidine reverse gene mutation, Ames assay, Assay Code: SAL+*, Activation: With metabolic activation, Evaluation Type: Evaluation A (Pre-1980).
The mark [5] stands for this setting: Species/Cell Type: Drosophila melanogaster, Assay Type: Sex-linked recessive lethal gene mutation, Assay Code: SRLT, Evaluation Type: Evaluation A (Pre-1980).
[6] abbreviates: Species/Cell Type: Saccharomyces cerevisiae, Assay Type: Mitotic recombination or gene conversion, Assay Code: YEH-, Evaluation Type: Evaluation A (Pre-1980).
The mark [7] stands for this setting: Species/Cell Type: Salmonella typhimurium (one or more of the five standard strains: TA98, TA100, TA1535, TA1537, and TA1538), Assay Type: Histidine reverse gene mutation, Ames assay, Assay Code: SALT, Evaluation Type: Evaluation A (Pre-1980).
[8] abbreviates: Species/Cell Type: Salmonella typhimurium (one or more of the five standard strains: TA98, TA100, TA1535, TA1537, and TA1538), Assay Type: Histidine reverse gene mutation, Ames assay, Assay Code: SAL+, Evaluation Type: Evaluation A (Pre-1980).
The mark [9] stands for this setting: Species/Cell Type: Human, Assay Type: Sister-chromatid exchange (SCE) in vitro, Assay Code: SC1+D, Dose Response: With dose response, Evaluation Type: Evaluation B (Post-1980).
[10] abbreviates: Species/Cell Type: Bacillus subtilis (H17 vs M45), Assay Type: Rec-assay, spot test, DNA effects (bacterial DNA repair), Assay Code: REWT, Evaluation Type: Evaluation A (Pre-1980).
[11] abbreviates: Species/Cell Type: Escherichia coli polA (W3119 vs P3478), Assay Type: Rec-assay, DNA effects (bacterial DNA repair), Assay Code: RE1T, Evaluation Type: Evaluation A (Pre-1980).
Where [12] appears, read: Species/Cell Type: Drosophila melanogaster, Assay Type: Sex-linked recessive lethal gene mutation, Assay Code: SRL-, Evaluation Type: Evaluation A (Pre-1980).
Setting [13] is: Species/Cell Type: Salmonella typhimurium (one or more of the five standard strains: TA98, TA100, TA1535, TA1537, and TA1538), Assay Type: Histidine reverse gene mutation, Ames assay, Assay Code: SAL-, Evaluation Type: Evaluation A (Pre-1980).

Activity calls are given as the source filed them. The rule behind the calls is not given here.

As to `CN[C@H]1CCc2cc(OC)c(OC)c(OC)c2-c2ccc(OC)c(=O)cc21`, the mutagenic call is, setting by setting: (Species/Cell Type: Drosophila melanogaster, Assay Type: Aneuploidy, sex chromosome gain, chromosome aberrations, Assay Code: DAG+F, Evaluation Type: Evaluation A (Pre-1980)) “active; positive”; (Species/Cell Type: Drosophila melanogaster, Assay Type: Aneuploidy, whole sex chromosome loss, chromosome aberrations, Assay Code: DAC+F, Evaluation Type: Evaluation A (Pre-1980)) “active; positive”; under setting [1], “no conclusion”; under setting [2], “no conclusion”; (Species/Cell Type: Mammalian polychromatic erythrocytes, Assay Type: Micronucleus test, chromosome aberrations, Assay Code: MNT+, Evaluation Type: Evaluation A (Pre-1980)) “active; positive”; under setting [3], “no conclusion”.

As for `C=CCN(CC=C)N=O`, the mutagenic call under setting [4] is “active; positive”.

Turning to `CN(C)c1ccc(C(=C2C=CC(=[N+](C)C)C=C2)c2ccc(N(C)C)cc2)cc1`, the mutagenic call reads like this: (Species/Cell Type: Bacillus subtilis (H17 vs M45), Assay Type: Rec-assay, spot test, DNA effects (bacterial DNA repair), Assay Code: REW+, Evaluation Type: Evaluation A (Pre-1980)) “active; positive”; (Species/Cell Type: Bacillus subtilis (H17 vs M45T), Assay Type: Rec-assay, spot test, DNA effects (bacterial DNA repair), Assay Code: REXT, Evaluation Type: Evaluation A (Pre-1980)) “no conclusion”; under setting [5], “no conclusion”; under setting [6], “inactive; negative”; under setting [7], “no conclusion”.

Consider `Clc1ccc(C(c2ccccc2Cl)C(Cl)Cl)cc1` (centres undefined), for which, under “Species/Cell Type: Nonhuman, Assay Type: Chromosome aberrations in vitro, Assay Code: CY&+, Evaluation Type: Evaluation A (Pre-1980)”, the mutagenic call is “active; positive”.

Consider `O=C(O)C(F)(F)F`, for which the mutagenic call under setting [7] is recorded as “no conclusion”.

On to `O[C@@H]1c2ccccc2-c2cc3ccc4ccccc4c3cc2[C@H]1O`, for which the mutagenic call is, setting by setting: (Species/Cell Type: Chinese hamster lung (V79) cells, Assay Type: Forward gene mutation at the HPRT or ouabain locus, Assay Code: V79-, Evaluation Type: Evaluation A (Pre-1980)) “inactive; negative”; (Species/Cell Type: Mouse prostate cells, Assay Type: Cell transformation, Assay Code: CTM-, Evaluation Type: Evaluation A (Pre-1980)) “inactive; negative”; under setting [4], “active; positive”; (Species/Cell Type: Syrian hamster embryo (SHE) cells, Assay Type: Cell transformation, clonal assay, Assay Code: CTCT, Evaluation Type: Evaluation A (Pre-1980)) “no conclusion”. Besides, the call (Species/Cell Type: Nonhuman, Assay Code: CCGT, Evaluation Type: Evaluation A (Pre-1980)) is “no conclusion”.

`Cc1nc2ccc([N+](=O)[O-])cc2[nH]1`: under setting [8], the mutagenic call is “active; positive”.

In the case of `O=c1[nH]c(=O)n([C@H]2C[C@H](O)[C@@H](CO)O2)cc1/C=C/I`, under setting [9], the mutagenic call was “active; positive”.

In the case of `O=[N+]([O-])c1nccn1CC(O)CF` (centres undefined), the mutagenic call under setting [8] is “active; positive”.

For `COc1ccc2[nH]c3c(C)c4ccncc4c(C)c3c2c1`, the mutagenic call (Species/Cell Type: Chinese hamster ovary (CHO) cells, Assay Type: Forward gene mutation at the HPRT locus, Assay Code: CHO+, Evaluation Type: Evaluation B (Post-1980)) is “active; positive”.

Regarding `O=C(CO)c1coc(=O)c2c(O)cccc12`, the mutagenic call under setting [10] was “no conclusion”.

Regarding `COP(=S)(OC)SCn1nnc2ccccc2c1=O`, the mutagenic call was “no conclusion” under setting [10]; “no conclusion” under setting [5]; “inactive; negative” (Species/Cell Type: Escherichia coli WP2 UVRA, Assay Type: Tryptophan reverse gene mutation, Assay Code: WPU-*, Activation: With metabolic activation, Evaluation Type: Evaluation A (Pre-1980)); “no conclusion” under setting [11]; “inactive; negative” (Species/Cell Type: Human diploid fibroblasts, Assay Type: Unscheduled DNA synthesis (UDS) in vitro, DNA effects, Assay Code: UDH-, Evaluation Type: Evaluation A (Pre-1980)); “inactive; negative” (Species/Cell Type: Nonhuman, Assay Type: Sister-chromatid exchange (SCE) in vitro, Assay Code: SC2-, Evaluation Type: Evaluation B (Post-1980)). Also, the mutagenic call runs as follows: (Species/Cell Type: Saccharomyces cerevisiae, Assay Type: Mitotic recombination or gene conversion, Assay Code: YEH+, Evaluation Type: Evaluation A (Pre-1980)) “active; positive”; under setting [7], “no conclusion”.

`COc1cc2c(c3oc(=O)c4c(c13)CCC4=O)[C@@H]1C(Cl)C(O)O[C@@H]1O2` (some centres undefined): the mutagenic call under setting [7] was “no conclusion”.

`[O]=[W](=[O])([OH])[OH]`: the mutagenic call by setting is: under setting [1], “no conclusion”; under setting [2], “no conclusion”.

As for `O=[O+][O-]`, the mutagenic call (Species/Cell Type: Human lymphocytes or leukocytes, Assay Type: Chromosome aberrations in vitro, Assay Code: CY7T, Evaluation Type: Evaluation A (Pre-1980)) is “no conclusion”; the mutagenic call (Species/Cell Type: Human lymphocytes or leukocytes, Assay Type: Chromosome aberrations in vivo, Assay Code: CY8T, Evaluation Type: Evaluation A (Pre-1980)) is on record as “no conclusion”; the mutagenic call under setting [9] is “active; positive”; the mutagenic call (Species/Cell Type: Mammalian germ cells, Sex: Male, Assay Type: Chromosome aberrations in vivo, Assay Code: CY9T, Evaluation Type: Evaluation A (Pre-1980)) is “no conclusion”; the mutagenic call (Species/Cell Type: Nonhuman bone marrow, Assay Type: Chromosome aberrations, in vivo, Assay Code: CY#-, Evaluation Type: Evaluation A (Pre-1980)) is “inactive; negative”; the mutagenic call (Species/Cell Type: Nonhuman lymphocytes or leukocytes, Assay Type: Chromosome aberrations in vivo, Assay Code: CY%T, Evaluation Type: Evaluation A (Pre-1980)) is on record as “no conclusion”. In addition, the mutagenic call was “inactive; negative” (Species/Cell Type: Nonhuman, Assay Type: Sister-chromatid exchange (SCE) in vivo, Assay Code: SC3-, Evaluation Type: Evaluation A (Pre-1980)); “active; positive” (Species/Cell Type: Tradescantia species, Assay Type: Gene mutation, Assay Code: TRM+D, Dose Response: With dose response, Evaluation Type: Evaluation A (Pre-1980)); “active; positive” (Species/Cell Type: Vicia faba, Assay Type: Chromosome aberrations, Assay Code: VIC+, Evaluation Type: Evaluation A (Pre-1980)).

With `Oc1cccc(O)c1O`, the mutagenic call was “active; positive” (Species/Cell Type: Allium cepa, Assay Type: Chromosome aberrations, Assay Code: ALC+, Evaluation Type: Evaluation A (Pre-1980)) and “active; positive” (Species/Cell Type: Mammalian polychromatic erythrocytes, Assay Type: Micronucleus test, chromosome aberrations, Assay Code: MNT+, Evaluation Type: Evaluation B (Post-1980)).

Consider `c1cc2c3c(c1)cc1ccc4cccc5cc(c3c1c45)CC2`, for which, under setting [4], the mutagenic call is “active; positive”.

As for `COc1ccc(N)c(OC)c1`, for the setting “Species/Cell Type: Nonhuman, Assay Code: CCG-, Evaluation Type: Evaluation A (Pre-1980)”, the call was “inactive; negative”.

`CCOP(=S)(OCC)SCCSCC`: the mutagenic call runs as follows: under setting [10], “no conclusion”; under setting [12], “inactive; negative”; under setting [11], “no conclusion”; (Species/Cell Type: Hordeum vulgare (barley), Assay Type: Chromosome aberrations, Assay Code: HOC+D, Dose Response: With dose response, Evaluation Type: Evaluation A (Pre-1980)) “active; positive”; (Species/Cell Type: Human diploid fibroblasts, Assay Type: Unscheduled DNA synthesis (UDS) in vitro, DNA effects, Assay Code: UDH+/-*, Activation: With metabolic activation, Evaluation Type: Evaluation A (Pre-1980)) “inactive; positive without activation, negative with activation”; under setting [3], “no conclusion”. Also, the mutagenic call is “inactive; negative” under setting [6] and “inactive; negative” under setting [13].

Consider `CCOc1ccc2c(c1)C(C)=CC(C)(C)N2`, for which the mutagenic call runs as follows: under setting [12], “inactive; negative”; under setting [13], “inactive; negative”.

Turning to `CN(C)CCCN1c2ccccc2CCc2ccccc21`, the mutagenic call runs as follows: under setting [2], “no conclusion”; (Species/Cell Type: Rodents, Sex: Male, Assay Type: Dominant lethal test, Assay Code: DLT-, Evaluation Type: Evaluation A (Pre-1980)) “inactive; negative”.

Regarding `O=c1cccc2cc(O)c(O)c(O)c2c1O`, the mutagenic call (Species/Cell Type: Allium cepa, Assay Type: Chromosome aberrations, Assay Code: ALC-, Evaluation Type: Evaluation A (Pre-1980)) is “inactive; negative”.

On to `CCN(Cc1ccccc1)c1ccc(C(=C2C=CC(=[N+](CC)Cc3ccccc3)C=C2)c2ccc(S(=O)(=O)O)cc2S(=O)(=O)[O-])cc1`, for which the mutagenic call under setting [10] was “no conclusion”.

`NCCCN1CC1`: the mutagenic call (Species/Cell Type: Schizosaccharomyces pombe, Assay Type: Reverse gene mutation, Assay Code: YEZ+, Evaluation Type: Evaluation A (Pre-1980)) is “active; positive”.

Regarding `O=C1CCC(=O)N1CN1CCOCC1`, the mutagenic call (Species/Cell Type: Arabidopsis species, Assay Type: Gene mutation, Assay Code: ARM-, Evaluation Type: Evaluation A (Pre-1980)) was “inactive; negative”.

The values above are taken from PubChem BioAssay AID1259408 (Genetic Toxicology Data Bank (GENE-TOX), 2018).
